# According to ChEMBL document CHEMBL1201862, “PubChem BioAssay data set” (2004):
# Active and inactive are the calls of the source.
# Key:
# [1] = biological target: T1, Delta-type opioid receptor (Homo sapiens, UniProt P41143); test: HTS Image-Based Screen for Antagonists of the DOR Receptor. [Related pubchem assays (depositor defined):AID1777, AID1785, AID1786, AID2133]; assay type: functional
# Mu-type opioid receptor = Mu-type opioid receptor (Homo sapiens, UniProt P35372); test: HTS Image-Based Screen for Agonists of the MOR Receptor. [Related pubchem assays (depositor defined):AID1777, AID1785, AID1786, AID2133]; assay type: functional;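 note: imaging of beta-arrestin GFP recruitment into spots after receptor activation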
# [2] = biological target: T1, Delta-type opioid receptor; test: HTS Image-Based Screen for Agonists of the DOR Receptor. [Related pubchem assays (depositor defined):AID1777, AID1786, AID2133]; assay type: functional
# Streptokinase A = biological target: T2, Streptokinase A (Streptococcus pyogenes serotype M1, UniProt P10520); test: S. pyogenes streptokinase expression inhibitors, potency, dose response, plasminogen activation absorbance, OD405 (AID 1914); assay type: functional, Streptococcus pyogenes M1 GAS;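 note: secreted streptokinase activity via plasminogen activation per viability signal from cell pellet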
# T2 sequence (P10520 whole entry): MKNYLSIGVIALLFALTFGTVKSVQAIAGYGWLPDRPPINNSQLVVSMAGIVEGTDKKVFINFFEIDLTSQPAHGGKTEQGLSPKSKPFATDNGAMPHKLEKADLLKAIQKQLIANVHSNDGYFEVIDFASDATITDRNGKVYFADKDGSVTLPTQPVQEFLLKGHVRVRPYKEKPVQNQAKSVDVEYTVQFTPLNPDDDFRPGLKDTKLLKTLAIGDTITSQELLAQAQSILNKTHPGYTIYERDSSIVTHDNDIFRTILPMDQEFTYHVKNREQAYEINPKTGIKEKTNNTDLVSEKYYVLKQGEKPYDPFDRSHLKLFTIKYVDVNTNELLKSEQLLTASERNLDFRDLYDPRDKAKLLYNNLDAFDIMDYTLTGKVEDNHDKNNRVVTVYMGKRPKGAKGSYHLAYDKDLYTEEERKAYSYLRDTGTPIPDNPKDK
# [3] = biological target: T3, Kappa-type opioid receptor (Homo sapiens, UniProt P41145); assay type: functional
# Beta-galactosidase = Beta-galactosidase (Escherichia coli, UniProt Q8VNN2); assay type: functional
# [4] = biological target: T3, Kappa-type opioid receptor; assay type: functional; remark: listed apart in the source
# Paired box protein Pax-8 = Paired box protein Pax-8 (Homo sapiens, UniProt Q06710); test: inhibitors of PAX8-driven TPO luciferase reporter, dose response, RMG-I cells, cherry-pick (AID 687027); assay type: functional, cell-based;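 note: luciferase reporter driven by Pax8 target thyroperoxidase promoter measured by SteadyGlo luminescence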
# [5] = biological target: Tyrosine-protein phosphatase non-receptor type 12 (Homo sapiens, UniProt Q05209); test: SAR Selectivity Analysis of small molecule inhibitors of PEST using pCAP in a fluorescence assay. [Related pubchem assays (depositor defined):AID1779, AID1784, AID2135]; assay type: functional
# [6] = biological target: T4, Dual specificity protein phosphatase 3 (Homo sapiens, UniProt P51452); test: SAR VHR1 absorbance Assay for In Vitro dose response studies. [Related pubchem assays (depositor defined):AID1654, AID1661, AID1878, AID1992, AID2004]
# [7] = biological target: T4, Dual specificity protein phosphatase 3; test: SAR VHR1 Fluorescent Assay for In Vitro dose response studies. [Related pubchem assays (depositor defined):AID1654, AID1661, AID1878, AID1992, AID2004, AID2070, AID2085]; assay type: functional
# [8] = biological target: T5, Tyrosine-protein phosphatase non-receptor type 22 (Homo sapiens, UniProt Q9Y2R2); test: SAR LYP1 Fluorescent Assay using OMFP substrate for In Vitro dose response studies - Set 3. [Related pubchem assays (depositor defined):AID1779, AID1784, AID2140, AID2686]; assay type: functional
# T5 sequence (Q9Y2R2 whole entry): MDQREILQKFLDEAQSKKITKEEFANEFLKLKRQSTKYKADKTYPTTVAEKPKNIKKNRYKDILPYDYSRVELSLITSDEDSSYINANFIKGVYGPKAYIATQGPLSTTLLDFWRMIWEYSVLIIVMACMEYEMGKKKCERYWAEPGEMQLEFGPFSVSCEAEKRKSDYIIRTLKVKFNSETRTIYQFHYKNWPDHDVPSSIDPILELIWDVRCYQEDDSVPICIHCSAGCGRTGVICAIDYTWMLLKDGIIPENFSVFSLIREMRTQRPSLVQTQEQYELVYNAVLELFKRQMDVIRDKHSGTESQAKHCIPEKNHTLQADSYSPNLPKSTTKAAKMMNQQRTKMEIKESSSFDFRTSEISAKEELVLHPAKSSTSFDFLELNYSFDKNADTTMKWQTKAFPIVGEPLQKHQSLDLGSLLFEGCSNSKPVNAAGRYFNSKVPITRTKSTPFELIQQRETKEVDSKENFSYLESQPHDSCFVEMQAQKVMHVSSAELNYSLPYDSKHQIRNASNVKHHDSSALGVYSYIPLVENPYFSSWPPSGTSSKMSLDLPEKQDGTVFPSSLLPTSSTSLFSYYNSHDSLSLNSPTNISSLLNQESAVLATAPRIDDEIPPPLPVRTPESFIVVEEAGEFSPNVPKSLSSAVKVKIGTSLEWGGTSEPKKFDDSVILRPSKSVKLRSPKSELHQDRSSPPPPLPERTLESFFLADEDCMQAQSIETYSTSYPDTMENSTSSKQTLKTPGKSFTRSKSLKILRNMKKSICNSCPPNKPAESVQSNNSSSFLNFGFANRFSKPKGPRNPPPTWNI
# [9] = biological target: T4, Dual specificity protein phosphatase 3; test: MOA VHR1 Fluorescent secondary assay for identification of redox-state modulating compounds. [Related pubchem assays (depositor defined):AID1654, AID1661, AID1878, AID1957]
# [10] = biological target: T6, Tyrosine-protein phosphatase non-receptor type 7 (Homo sapiens, UniProt P35236); test: redox-dependent HePTP inhibition, mechanism study, biochemical, fluorescence (AID 2068); assay type: functional
# T6 sequence (P35236 whole entry): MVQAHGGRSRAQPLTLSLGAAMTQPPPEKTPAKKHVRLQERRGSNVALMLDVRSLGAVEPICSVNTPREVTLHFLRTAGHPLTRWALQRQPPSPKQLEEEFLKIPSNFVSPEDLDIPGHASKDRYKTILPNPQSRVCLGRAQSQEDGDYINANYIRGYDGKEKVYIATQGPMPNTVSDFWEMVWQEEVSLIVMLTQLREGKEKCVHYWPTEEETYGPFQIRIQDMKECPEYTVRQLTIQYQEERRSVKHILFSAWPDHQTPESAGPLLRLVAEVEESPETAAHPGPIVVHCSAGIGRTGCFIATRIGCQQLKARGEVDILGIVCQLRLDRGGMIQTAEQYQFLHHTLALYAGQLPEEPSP
# [11] = biological target: T6, Tyrosine-protein phosphatase non-receptor type 7; test: HePTP (PTPN7) phosphatase inhibitor potency, SAR follow-up, biochemical, set 2 (AID 449736); assay type: functional
# [12] = biological target: T5, Tyrosine-protein phosphatase non-receptor type 22; test: LYP (PTPN22) phosphatase inhibitor potency, SAR follow-up, biochemical, pCAP fluorogenic substrate, fluorescence, set 3 (AID 449727); assay type: functional
# [13] = biological target: T7, Dual specificity protein phosphatase 6 (Rattus norvegicus, UniProt Q64346); assay type: functional;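 note: confirmatory in vitro dose-response testing of MKP-3 inhibition; recombinant His-tagged MKP-3 made in E. coli BL21 with OMFP substrate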
# T7 sequence (Q64346 whole entry): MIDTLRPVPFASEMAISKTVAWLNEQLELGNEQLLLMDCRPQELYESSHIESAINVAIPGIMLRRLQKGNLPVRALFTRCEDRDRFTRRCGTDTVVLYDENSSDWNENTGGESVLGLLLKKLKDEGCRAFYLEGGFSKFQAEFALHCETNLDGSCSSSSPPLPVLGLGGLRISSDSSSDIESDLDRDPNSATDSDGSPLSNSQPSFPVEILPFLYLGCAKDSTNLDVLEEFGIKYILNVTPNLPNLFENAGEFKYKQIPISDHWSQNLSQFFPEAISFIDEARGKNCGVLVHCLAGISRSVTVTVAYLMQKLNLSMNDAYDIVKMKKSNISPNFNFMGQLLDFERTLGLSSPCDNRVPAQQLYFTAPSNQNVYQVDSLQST
# [14] = biological target: DNA (cytosine-5)-methyltransferase 1 (Homo sapiens, UniProt P26358); test: DNMT1 methyltransferase inhibitors, confirmation, biochemical, fluorescent molecular beacon (AID 602386); assay type: functional
# [15] = biological target: T8, Small ubiquitin-related modifier 1 (Homo sapiens, UniProt P63165); test: inhibitors of SUMO1 peptide binding, dose response, biochemical, fluorescence polarization, uHTS hits (AID 624382); assay type: functional; settings: read-out: IC50_Mean
# [16] = biological target: T8, Small ubiquitin-related modifier 1; test: inhibitors of SUMO1 partner interactions, dose response, biochemical, FRET (AID 624383); assay type: functional; settings: read-out: IC50_Mean
# [17] = biological target: T9, Low molecular weight phosphotyrosine protein phosphatase (Homo sapiens, UniProt P24666); assay type: functional; settings: read-out: IC50_Mean;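 note: Dose-response confirmation assay measuring inhibition of LMPTP enzyme activity by fluorescence intensity read-out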
# T9 sequence (P24666 whole entry): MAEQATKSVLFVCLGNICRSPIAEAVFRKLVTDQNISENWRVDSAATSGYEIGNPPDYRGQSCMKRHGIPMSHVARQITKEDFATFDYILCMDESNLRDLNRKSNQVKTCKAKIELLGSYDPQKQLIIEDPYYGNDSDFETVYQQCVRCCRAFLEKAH
# [18] = biological target: T5, Tyrosine-protein phosphatase non-receptor type 22; test: LYP phosphatase inhibition for selectivity, dose response, selectivity assay for LMPTP inhibitor project, biochemical, fluorescence, LYP catalytic domain (AID 652006); assay type: functional; settings: read-out: IC50_Mean
# T4 sequence (P51452 whole entry): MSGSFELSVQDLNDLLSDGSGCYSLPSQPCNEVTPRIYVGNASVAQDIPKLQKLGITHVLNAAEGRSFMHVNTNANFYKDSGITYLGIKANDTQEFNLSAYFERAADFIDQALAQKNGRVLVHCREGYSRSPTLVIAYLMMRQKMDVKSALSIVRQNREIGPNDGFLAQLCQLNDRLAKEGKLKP
# T3 sequence (P41145 whole entry): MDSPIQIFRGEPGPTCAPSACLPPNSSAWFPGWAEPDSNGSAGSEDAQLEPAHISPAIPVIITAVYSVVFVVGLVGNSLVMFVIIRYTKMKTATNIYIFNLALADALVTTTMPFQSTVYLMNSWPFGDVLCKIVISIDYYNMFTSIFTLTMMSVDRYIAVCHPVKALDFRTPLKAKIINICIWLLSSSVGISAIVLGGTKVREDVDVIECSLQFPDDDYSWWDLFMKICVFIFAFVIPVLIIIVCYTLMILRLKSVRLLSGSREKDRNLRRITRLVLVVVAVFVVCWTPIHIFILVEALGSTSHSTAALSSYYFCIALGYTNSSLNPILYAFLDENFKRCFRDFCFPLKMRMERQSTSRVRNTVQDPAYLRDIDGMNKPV
# T1 sequence (P41143 whole entry): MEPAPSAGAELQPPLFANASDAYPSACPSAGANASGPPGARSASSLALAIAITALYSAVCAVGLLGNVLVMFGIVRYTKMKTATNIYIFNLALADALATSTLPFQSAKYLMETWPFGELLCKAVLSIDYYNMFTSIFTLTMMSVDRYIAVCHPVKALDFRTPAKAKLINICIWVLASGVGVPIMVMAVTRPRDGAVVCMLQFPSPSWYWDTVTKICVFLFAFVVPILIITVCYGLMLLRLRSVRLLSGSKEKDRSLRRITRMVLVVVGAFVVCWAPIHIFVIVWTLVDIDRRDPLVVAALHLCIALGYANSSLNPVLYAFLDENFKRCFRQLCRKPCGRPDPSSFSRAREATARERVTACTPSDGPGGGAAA
# T8 sequence (P63165 whole entry): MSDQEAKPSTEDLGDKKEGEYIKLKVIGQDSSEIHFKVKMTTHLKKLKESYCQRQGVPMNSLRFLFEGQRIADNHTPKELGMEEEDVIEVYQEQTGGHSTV
# Sequence of DNA (cytosine-5)-methyltransferase 1 (P26358 whole entry): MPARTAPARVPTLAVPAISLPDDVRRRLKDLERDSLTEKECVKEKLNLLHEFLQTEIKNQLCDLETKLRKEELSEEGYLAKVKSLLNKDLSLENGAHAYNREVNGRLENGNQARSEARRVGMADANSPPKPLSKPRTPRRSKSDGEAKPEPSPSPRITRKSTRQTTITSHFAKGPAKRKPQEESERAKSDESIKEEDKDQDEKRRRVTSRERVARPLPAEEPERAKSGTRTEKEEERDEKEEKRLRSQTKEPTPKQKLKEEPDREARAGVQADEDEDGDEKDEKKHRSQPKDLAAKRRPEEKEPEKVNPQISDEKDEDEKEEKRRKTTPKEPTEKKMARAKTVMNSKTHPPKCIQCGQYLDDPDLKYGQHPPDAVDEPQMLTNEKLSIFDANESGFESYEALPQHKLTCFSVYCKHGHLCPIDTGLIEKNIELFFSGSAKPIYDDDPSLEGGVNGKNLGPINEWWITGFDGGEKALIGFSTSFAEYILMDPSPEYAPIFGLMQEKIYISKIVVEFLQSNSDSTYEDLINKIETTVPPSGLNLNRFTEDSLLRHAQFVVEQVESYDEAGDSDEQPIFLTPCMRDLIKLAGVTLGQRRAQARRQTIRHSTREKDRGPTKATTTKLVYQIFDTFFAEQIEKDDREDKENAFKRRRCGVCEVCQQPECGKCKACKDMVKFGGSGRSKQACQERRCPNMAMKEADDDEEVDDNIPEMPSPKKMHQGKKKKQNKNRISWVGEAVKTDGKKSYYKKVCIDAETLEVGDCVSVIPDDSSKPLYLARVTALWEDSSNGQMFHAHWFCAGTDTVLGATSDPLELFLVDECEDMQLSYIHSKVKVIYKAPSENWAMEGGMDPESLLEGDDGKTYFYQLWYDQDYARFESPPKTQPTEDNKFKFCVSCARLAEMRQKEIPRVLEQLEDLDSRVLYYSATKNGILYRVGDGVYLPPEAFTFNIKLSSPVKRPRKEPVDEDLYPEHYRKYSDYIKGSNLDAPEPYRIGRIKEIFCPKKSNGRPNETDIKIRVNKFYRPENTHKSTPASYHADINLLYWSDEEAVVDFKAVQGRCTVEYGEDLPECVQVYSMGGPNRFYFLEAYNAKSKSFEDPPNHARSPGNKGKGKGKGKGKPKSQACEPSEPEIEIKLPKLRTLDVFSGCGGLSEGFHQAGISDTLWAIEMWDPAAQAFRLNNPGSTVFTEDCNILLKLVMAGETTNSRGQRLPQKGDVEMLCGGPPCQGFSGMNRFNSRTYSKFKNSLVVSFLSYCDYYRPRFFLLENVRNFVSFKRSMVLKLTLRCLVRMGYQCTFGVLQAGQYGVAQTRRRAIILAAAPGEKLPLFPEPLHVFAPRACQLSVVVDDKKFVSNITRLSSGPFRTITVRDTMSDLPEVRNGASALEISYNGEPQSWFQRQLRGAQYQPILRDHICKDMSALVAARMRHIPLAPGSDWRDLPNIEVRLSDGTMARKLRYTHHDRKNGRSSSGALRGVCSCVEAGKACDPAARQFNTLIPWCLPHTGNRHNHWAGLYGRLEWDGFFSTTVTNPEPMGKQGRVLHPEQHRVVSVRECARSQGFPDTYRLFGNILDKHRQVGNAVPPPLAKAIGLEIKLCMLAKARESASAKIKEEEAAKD
# Sequence of Paired box protein Pax-8 (Q06710 whole entry): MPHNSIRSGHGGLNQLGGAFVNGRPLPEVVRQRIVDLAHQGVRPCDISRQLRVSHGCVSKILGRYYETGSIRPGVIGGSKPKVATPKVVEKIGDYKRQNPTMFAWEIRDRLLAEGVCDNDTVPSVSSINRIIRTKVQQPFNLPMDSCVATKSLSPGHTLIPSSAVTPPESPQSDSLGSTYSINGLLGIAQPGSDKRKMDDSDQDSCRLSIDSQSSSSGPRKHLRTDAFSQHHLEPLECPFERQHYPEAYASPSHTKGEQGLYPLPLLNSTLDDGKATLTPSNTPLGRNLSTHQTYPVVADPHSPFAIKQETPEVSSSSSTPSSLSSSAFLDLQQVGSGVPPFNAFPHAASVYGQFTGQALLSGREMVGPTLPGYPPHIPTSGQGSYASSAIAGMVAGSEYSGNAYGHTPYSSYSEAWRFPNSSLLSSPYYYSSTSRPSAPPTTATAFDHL
# Sequence of Mu-type opioid receptor (P35372 whole entry): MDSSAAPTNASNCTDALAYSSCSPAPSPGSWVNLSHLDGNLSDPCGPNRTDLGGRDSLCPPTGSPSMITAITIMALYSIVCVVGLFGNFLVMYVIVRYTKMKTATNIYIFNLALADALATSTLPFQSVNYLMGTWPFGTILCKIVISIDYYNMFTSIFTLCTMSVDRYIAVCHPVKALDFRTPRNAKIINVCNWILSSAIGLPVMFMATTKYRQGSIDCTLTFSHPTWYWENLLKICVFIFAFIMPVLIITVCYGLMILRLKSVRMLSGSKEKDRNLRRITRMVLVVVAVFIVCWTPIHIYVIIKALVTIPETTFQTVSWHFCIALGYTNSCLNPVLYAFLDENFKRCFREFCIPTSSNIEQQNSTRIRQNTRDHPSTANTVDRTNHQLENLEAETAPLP
# Sequence of Beta-galactosidase (Q8VNN2 whole entry): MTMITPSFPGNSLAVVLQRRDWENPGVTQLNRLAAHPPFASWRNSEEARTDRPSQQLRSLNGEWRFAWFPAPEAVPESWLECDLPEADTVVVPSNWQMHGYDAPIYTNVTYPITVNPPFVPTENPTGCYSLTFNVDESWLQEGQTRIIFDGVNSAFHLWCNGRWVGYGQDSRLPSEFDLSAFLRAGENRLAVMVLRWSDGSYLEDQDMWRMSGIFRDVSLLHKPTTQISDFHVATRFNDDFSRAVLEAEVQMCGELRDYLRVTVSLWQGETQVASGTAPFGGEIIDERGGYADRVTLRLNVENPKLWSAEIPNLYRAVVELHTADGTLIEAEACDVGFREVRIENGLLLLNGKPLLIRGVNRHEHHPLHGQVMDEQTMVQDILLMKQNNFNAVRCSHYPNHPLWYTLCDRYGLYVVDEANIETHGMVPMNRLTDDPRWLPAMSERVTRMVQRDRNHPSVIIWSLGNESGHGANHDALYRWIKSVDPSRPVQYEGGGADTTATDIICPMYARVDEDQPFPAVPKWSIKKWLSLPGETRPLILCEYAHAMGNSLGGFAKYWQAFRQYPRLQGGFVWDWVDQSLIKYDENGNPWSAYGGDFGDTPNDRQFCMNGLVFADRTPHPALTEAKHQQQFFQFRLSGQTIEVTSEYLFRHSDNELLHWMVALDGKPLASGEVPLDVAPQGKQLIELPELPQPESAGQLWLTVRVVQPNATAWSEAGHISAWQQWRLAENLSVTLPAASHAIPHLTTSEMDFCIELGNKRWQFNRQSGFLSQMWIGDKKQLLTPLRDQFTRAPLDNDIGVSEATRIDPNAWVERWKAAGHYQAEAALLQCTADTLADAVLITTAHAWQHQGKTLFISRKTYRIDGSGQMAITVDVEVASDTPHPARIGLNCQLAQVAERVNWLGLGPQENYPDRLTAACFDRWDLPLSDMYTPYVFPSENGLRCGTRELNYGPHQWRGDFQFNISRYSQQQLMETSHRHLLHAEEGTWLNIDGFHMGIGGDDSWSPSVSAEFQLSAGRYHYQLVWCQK
structure (smiles),measurement,setting,value
O=c1nc(-c2ccccn2)[nH]c2sc(-c3ccccc3)cc12,IC50,[1],> 32 µM (inactive)
same,EC50,Mu-type opioid receptor,> 32 µM (inactive)
same,EC50,[2],> 32 µM (inactive)
same,EC50,Streptokinase A,> 150 µM (not active)
same,IC50,[3],1.79 µM (active)
same,EC50,Beta-galactosidase,> 31.5 µM (inactive)
same,IC50,[4],> 32 µM
same,AC50,Paired box protein Pax-8,14 µM (active)
CCOC(=O)C1=C(C)N=c2sc(=Cc3ccc(OCC(=O)O)cc3)c(=O)n2C1c1ccc(Cl)cc1 (configuration not stated),IC50,[5],2.41 µM (active)
same,IC50,[6],4.23 µM (active)
same,IC50,[7],3.2 µM (active)
same,IC50,[8],3.82 µM (active)
same,IC50,[9],2.08 µM (active)
same,IC50,[10],0.52 µM (active)
same,IC50,[11],0.419 µM (active)
same,IC50,[12],2.74 µM (active)
same,IC50,[13],41.4 µM (active)
same,IC50,[14],8.42 µM (active)
same,IC50,[15],> 66.6 µM (inactive)
same,IC50,[16],8.82 µM (active)
same,IC50,[17],12.5 µM (active)
same,IC50,[18],12 µM (active)
